For the assay, the system named is conditional CPS1 knock out mouse model. As to the kind of experiment: sAAV efficacy in vivo in conditional CPS1 knock out mouse model (floxed Cps1 removed by AAV-Cre). The following applies: sAAV-treated mice additionally treated with n-carglumic acid. The text has this:
To illustrate the ability of sAAVs to treat CPS1 deficiency, sAAVs encoding human codon optimized CPS1 (hcoCPS1) driven by the constitutive CAG promoter were generated and tested in a conditional CPS1 knock out mouse model (see, e.g. Khoja et al., Molecular Genetics and Metabolism. 2018 Aug. 1; 124(4):243-253). […] Currently, there is no effective therapy for human patients with CPS1 disorders. Our data from this gene therapy model in mice having knocked out endogenous CPS1 expression provides evidence that this treatment can address this unmet need for these patients.
In illustrative embodiments of the invention, to test sAAV efficacy in vivo, a conditional CPS1 knock out mouse model was used. These mice contain biallelic floxed Cps1 which is removed by treatment with an AAV expressing Cre recombinase (AAV-Cre). […] Treatment with the small molecule n-carglumic acid, an analog of NAG, the allosteric activator of CPS1, further extended lifespan (all mice >120 days; p<0.01) and maintained near normal plasma ammonia (baseline: 138.87 μM±86.5; post-treatment: 217.8 μM±69.9; p=0.15).

On to `NC(=O)N[C@@H](CCC(=O)O)C(=O)O` [n-carglumic acid], for which the lifespan (all mice, p<0.01) is listed as > 120 days. This molecule also displayed a plasma ammonia post-treatment (±69.9, baseline 138.87 μM±86.5, p=0.15) of 217.8 µM.

The record behind these values is US12281323B2, “Treatment for restoring ureagenesis in carbamoyl phosphate synthetase 1 deficiency” (The Regents of the University of California, priority 2019, dated 2025).
